{
  "source": "patent US20250320248A1",
  "about": "“MENAQUINONE-BINDING COMPOUNDS AND METHODS OF USE THEREOF” (The Rockefeller University, priority 2021, published 2025)",
  "key": {"[1]": {"assay": "Isothermal titration calorimetry, DOPC liposomes containing lipid II", "type": "binding", "description": "(§1) For MK and UQ binding, a 1:1 mixture of 1,2-dioleoyl-sn-glycero-3-phosphocholine (DOPC) and 1,2-dioleoyl-sn-glycero-3-phospho-rac-(1-glycerol) (DOPG) containing either 1.25 mol % MK4 or UQ10 was dissolved in chloroform. A lipid film was generated by drying this material under a stream of nitrogen followed by 2 h of vacuum drying. The resulting film was hydrated using 10 mM HEPES (pH 7.5) with 100 mM NaCl to give a final total lipid concentration of 5 mM. Using an Avanti Mini Extruder, this suspension was passed through a 100 nm polycarbonate filter 10 times. For ITC the sample cell was filled with 400 μL of 25 μM MBA prepared in 10 mM HEPES buffer. The syringe (150 μL) was loaded with a 5 mM lipid suspension with 1.25 mol % MK4 or UQ10. For lipid II binding, 10 mM DOPC containing 1 mol % lipid II was dissolved in chloroform. The resulting film was hydrated using 50 mM Tris (pH 7.5) with 100 mM NaCl and passed through a 100 nm polycarbonate filter 10 times. For ITC the sample cell was filled with 400 μL of 25 μM an MBA prepared in 50 mM Tris buffer. The syringe (150 μL) was loaded with a 10 mM DOPC suspension with 1 mol % lipid II. Data were collected by using an Auto-iTC200 (Malvern Panalytical) and processed by Affinimeter software using the “one binding site” model."}, "[2]": {"test_system": "Mycobacterium tuberculosis"}, "[3]": {"test_system": "methicillin-resistant S. aureus COL", "assay": "Mouse peritonitis-sepsis model", "settings": "single subcutaneous dose 1 h after infection"}, "[4]": {"test_system": "Mtb mc2 6206/mLux in J774A.1 mouse macrophages", "type": "cell-based, Mycobacterium tuberculosis"}, "[5]": {"test_system": "Gram-positive bacteria (Bacillus subtilis, Staphylococcus aureus and Staphylococcus epidermidis)", "assay": "Antibacterial activity against Gram-positive bacteria (broth micro-dilution)", "type": "cell-based", "description": "(§2) All antimicrobial assays were run in 96-well microtiter plates using a broth micro-dilution method. Diluted overnight cultures were used in all assays. For yeast strains, overnight cultures were diluted 2000-fold in YPD broth. For Enterococcus faecium and Staphylococcus aureus, overnight cultures were diluted 1000- and 10,000-fold in LB broth, respectively. For Streptococcus strains, overnight cultures were diluted 5,000-fold in Brain Heart Infusion (BHI) broth. For other bacteria, overnight cultures were diluted 5,000-fold in LB broth. 100 μL of each diluted culture was mixed with 100 μL of LB broth containing a syn-BNP at 2-fold serial dilutions across a 96-well microtiter plate row. The final concentration of each compound ranged from 64 to 0.25 μg/mL. Plates were incubated at 37° C. (bacteria) or 30° C. (yeast) for 16 h. The lowest concentration that inhibited visible microbial growth was recorded as the minimum inhibition concentration (MIC). All MIC assays were done in duplicate (n=2)."}, "[6]": {"test_system": "Enterococcus or Streptococcus strains", "assay": "MIC against all eight Enterococcus or Streptococcus strains", "type": "cell-based", "settings": "MK-producing and MK-deficient", "description": "as §2"}, "S. aureus tn:hemB": {"test_system": "S. aureus tn:hemB", "assay": "MIC against S. aureus hemB transposon insertion mutant", "type": "cell-based, Staphylococcus aureus"}, "[7]": {"assay": "Isothermal titration calorimetry, DOPC:DOPG liposomes containing MK", "type": "binding", "description": "as §1"}, "Mycobacterium smegmatis": {"test_system": "Mycobacterium smegmatis", "settings": "reported in literature; cited from earlier work"}},
  "note": "Starred links: 1 amine or outer side, 2 acyl side, 3 side chain; linkers in the order of their positions; H or OH if unused. Positions of bridges follow the written chain, without caps; N, C: chain ends. Non-standard residues stand in square brackets, D forms with d. Residues, ends and D or L forms follow the SMILES beside them. X1 = CCCCC[C@H](CC(=O)[*:1])O[*:2]; GABA = NCCCC(=O)O",
  "data": [
    {"compound": "CCCCC[C@@H]1CC(=O)N[C@@H](C(C)C)C(=O)N[C@H](CCCNC(=N)N)C(=O)N[C@@H](C(C)C)C(=O)NCC(=O)N2CCC[C@H]2C(=O)N[C@@H](CC(C)C)C(=O)N[C@H](CCCNC(=N)N)C(=O)N[C@@H](CCC(=O)O)C(=O)N[C@H](Cc2ccc(O)cc2)C(=O)N[C@H](Cc2c[nH]c3ccccc23)C(=O)NCCCC(=O)O1", "note": "[MBA3, metameb] (V[dR]VGPL[dR]E[dY][dW][GABA]; linker N-C via X1)", "values": [
      {"measurement": "lipid II binding", "setting": "[1]", "result": "no lipid II binding or similarly low lipid II binding affinities"},
      {"measurement": "activity against Mtb", "setting": "[2]", "result": "active"},
      {"measurement": "MIC", "setting": "[2]; lowest MIC against MDR Mtb", "result": "≥ 0.078", "unit": "µg/mL"},
      {"measurement": "mortality of infected mice compared to vehicle", "setting": "[3]; 5, 10 and 30 mg/kg", "result": "dramatically decreased"},
      {"measurement": "minimal dose required for 100% survival", "setting": "[3]", "result": 10, "unit": "mg/kg"},
      {"measurement": "relative potency in macrophage assay", "setting": "[4]", "result": "most potent"},
      {"measurement": "antibacterial activity against Gram-positive bacteria", "setting": "[5]", "result": "good Gram-positive antibiosis"}
    ]},
    {"compound": "nisin", "values": [
      {"measurement": "Kd", "setting": "[1]; read-out: lipid II binding affinity Kd", "result": 70, "unit": "nM"},
      {"measurement": "antibacterial activity", "setting": "[6]", "result": "active"},
      {"measurement": "MIC difference between wild-type S. aureus and tn:hemB strain", "setting": "S. aureus tn:hemB", "result": "no significant differences in MIC"}
    ]},
    {"compound": "CN[C@H](CC(C)C)C(=O)N[C@H]1C(=O)N[C@@H](CC(N)=O)C(=O)N[C@H]2C(=O)N[C@H]3C(=O)N[C@H](C(=O)N[C@H](C(=O)O)c4cc(O)cc(O)c4-c4cc3ccc4O)[C@H](O)c3ccc(c(Cl)c3)Oc3cc2cc(c3O[C@@H]2O[C@H](CO)[C@@H](O)[C@H](O)[C@H]2O[C@H]2C[C@](C)(N)[C@H](O)[C@H](C)O2)Oc2ccc(cc2Cl)[C@H]1O", "note": "[vancomycin]", "values": [
      {"measurement": "antibacterial activity", "setting": "[6]", "result": "active"},
      {"measurement": "MIC difference between wild-type S. aureus and tn:hemB strain", "setting": "S. aureus tn:hemB", "result": "no significant differences in MIC"}
    ]},
    {"compound": "lysobactin", "values": [
      {"measurement": "antibacterial activity", "setting": "[6]", "result": "active"},
      {"measurement": "MIC difference between wild-type S. aureus and tn:hemB strain", "setting": "S. aureus tn:hemB", "result": "no significant differences in MIC"}
    ]},
    {"compound": "CCCCC[C@@H]1CC(=O)N[C@@H](C(C)C)C(=O)N[C@H](CCCNC(=N)N)C(=O)N[C@@H](C(C)C)C(=O)N[C@@H](C)C(=O)N2CCC[C@H]2C(=O)N[C@@H](CC(C)C)C(=O)N[C@H](CCCNC(=N)N)C(=O)N[C@@H](CCC(=O)O)C(=O)N[C@H](Cc2ccc(O)cc2)C(=O)N[C@H](Cc2c[nH]c3ccccc23)C(=O)NCCCC(=O)O1", "note": "[MBA3 Gly-4 to L-Ala] (V[dR]VAPL[dR]E[dY][dW][GABA]; linker N-C via X1)", "values": [
      {"measurement": "ability to interact with MK", "setting": "[7]", "result": "completely abrogated"}
    ]},
    {"compound": "ramoplanin", "values": [
      {"measurement": "antibacterial activity", "setting": "[6]", "result": "active"},
      {"measurement": "MIC difference between wild-type S. aureus and tn:hemB strain", "setting": "S. aureus tn:hemB", "result": "no significant differences in MIC"}
    ]},
    {"compound": "lysocin E", "values": [
      {"measurement": "activity against Mycobacterium smegmatis", "setting": "Mycobacterium smegmatis", "result": "active"}
    ]},
    {"compound": "CCCCC[C@@H]1CC(=O)N[C@@H](C(C)C)C(=O)N[C@H](CCC(=O)O)C(=O)N[C@@H](CCCNC(=N)N)C(=O)NCC(=O)N2CCC[C@H]2C(=O)N[C@@H](CC(C)C)C(=O)N[C@H](CCC(N)=O)C(=O)N[C@@H](CCC(=O)O)C(=O)N[C@H](Cc2ccc(O)cc2)C(=O)N[C@H](Cc2c[nH]c3ccccc23)C(=O)NCCCC(=O)O1", "note": "[MBA4, alcameb] (V[dE]RGPL[dQ]E[dY][dW][GABA]; linker N-C via X1)", "values": [
      {"measurement": "antibacterial activity against Gram-positive bacteria", "setting": "[5]", "result": "good Gram-positive antibiosis"}
    ]},
    {"compound": "CCCCC[C@@H]1CC(=O)N[C@@H](C(C)C)C(=O)N[C@H](CCCNC(=N)N)C(=O)N[C@@H](C(C)C)C(=O)NCC(=O)N2CCC[C@H]2C(=O)N[C@@H](CC(C)C)C(=O)N[C@H](CCCNC(=N)N)C(=O)N[C@@H](CCC(=O)O)C(=O)N[C@H](Cc2ccc(O)cc2)C(=O)N[C@H](C)C(=O)NCCCC(=O)O1", "note": "[MBA3 D-Trp-10 to D-Ala] (V[dR]VGPL[dR]E[dY][dA][GABA]; linker N-C via X1)", "values": [
      {"measurement": "lipid II binding", "setting": "[1]", "result": "no lipid II binding or similarly low lipid II binding affinities"},
      {"measurement": "ability to interact with MK", "setting": "[7]", "result": "completely abrogated"}
    ]}
  ]
}
